Molecules are shown by their SMILES.

The nature of the data set: Absorption maximum (λmax) of the azasiline dyes, from the HPLC / LC-MS absorption profile. Format: physicochemical. The conditions noted are these: absorption profile from HPLC/LC-MS analysis (FIGS. 1A-1B: 100 mM TEAA and ACN); value for compound 4 from initial attempts to quantify the absorption. How it is done:
FIGS. 1A-1B. Absorption profile for compound 2 (FIG. 1A) and compound 3 (FIG. 1B), as described herein: HPLC chromatogram of the reaction mixture with 100 mM triethylammonium acetate (TEAA) and acetonitrile (ACN).
A mixture of 1a (0.155 mmol) and hydrochloric acid (0.053 mL) in absolute ethanol (1.6 mL) was cooled to 0° C., to which a solution of sodium nitrite (12.1 mg in 0.107 mL) in water was added and stirred for 3 hours after which the solid (dark green crystals) was filtered off. It was diluted with ethanol (1 mL) and 0.02 mL of 1N HCl was added to the mixture. The resulting mixture was refluxed for 4 hours. The progress of the reaction was monitored by HPLC using triethylammonium acetate (TEAA) and acetonitrile (ACN) as the mobile phases on reverse phase (RP) C18 column. The formation of the product was confirmed by mass analysis and HPLC analysis based on the wavelength (see FIG. TA). […]
Synthesis of compound 3. […] The reaction mixture was stirred for overnight and the progress of the reaction was monitored by LC-MS analysis to generate compound 3 (λmax 810 nm); see FIG. 1B.
Synthesis of compound 4. […] The reaction mixture was stirred for overnight and the progress of the reaction was monitored by LC-MS analysis to generate and confirm the presence of compound 4.

For the molecule `CN1CCCc2cc3c(cc21)[Si](C)(C)c1cc2c(cc1=N3)CCC[N+]=2C` [compound 4], the “absorption maximum (λmax)” value was “greater than 850 nm”.

The values are drawn from US11535754B2, “Silicon containing detectable compounds and uses thereof” (Singular Genomics Systems, Inc., priority 2019, dated 2022).
